Measurements published in patent US20080312277A1, “Gpr41 and Modulators Thereof for the Treatment of Insulin-Related Disorders” (priority 2004, published 2008).

Legend:
male C57b1/6 mice = assay: Oral glucose tolerance test (oGTT); type: in vivo; details: p.o. 30 min before oral dextrose 3 g/kg, FIG. 8
Method: For the oGTT, male C57b1/6 mice were fasted for about 18 hours and randomly grouped to receive the compounds indicated in FIG. 8 at the indicated doses, or vehicle (PET which contains 80% PEG, 10% Tween80, and 10% Ethanol). The indicated compound(s) were delivered orally via a gavage needle (p.o. volume at 100 μl). Thirty minutes after administration of the compound(s) or vehicle, mice were administered orally with dextrose at 3 g/kg dose. Levels of blood glucose were determined at several time points using Glucometer Elite XL (Bayer).

GPR41 = biological target: T1, GPR41 (Homo sapiens, UniProt O14843); details: Brown et al., J. Biol. Chem. 278:11312-11319 (2003); cited from earlier work
T1 sequence (O14843 1-346): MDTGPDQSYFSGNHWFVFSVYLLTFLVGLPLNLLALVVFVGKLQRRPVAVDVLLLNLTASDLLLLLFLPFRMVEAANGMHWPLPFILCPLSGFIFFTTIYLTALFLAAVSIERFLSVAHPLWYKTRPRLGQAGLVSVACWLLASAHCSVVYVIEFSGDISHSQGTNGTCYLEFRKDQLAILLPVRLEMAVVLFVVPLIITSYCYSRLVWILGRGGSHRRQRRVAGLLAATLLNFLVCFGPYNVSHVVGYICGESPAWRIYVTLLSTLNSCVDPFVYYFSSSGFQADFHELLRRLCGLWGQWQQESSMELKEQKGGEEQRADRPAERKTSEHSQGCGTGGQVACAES

For `CC1=C(C(=O)Nc2ccccc2C)C(c2ccoc2)C2=C(CCCC2=O)N1` (stereo not drawn) [Compound 4, 4-Furan-3-yl-2-methyl-5-oxo-1,4,5,6,7,8-hexahydro-quinoline-3-carboxylic acid o-tolylamide], the “effect on the glycemic lowering effect of Compound B111 in the oGTT (plasma glucose)” value (male C57b1/6 mice; used in conjunction with Compound B111) was “reversed the glycemic lowering effect of Compound B111”.

For `CC(C)c1noc(C2CCN(c3ncnc(Nc4ccc(S(C)(=O)=O)cc4F)c3[N+](=O)[O-])CC2)n1` [Compound B111, (2-Fluoro-4-methanesulfonyl-phenyl)-{6-[4-(3-isopropyl-[1,2,4]oxadiazol-5-yl)-piperidin-1-yl]-5-nitro-pyrimidin-4-yl}-amine], the “glycemic effect in the oGTT” value (male C57b1/6 mice; used alone) was “glycemic lowering effect”.

For `CCC(=O)O` [propionate], the “activation of GPR41” value (GPR41) is given as “activated”.
